This note sets out measurements from patent US20170166555A1, “FUNCTIONALISED AND SUBSTITUTED INDOLES AS ANTI-CANCER AGENTS” (Novogen Limited, priority 2013, published 2017).

Common to all, as to test: Anti-proliferative assay, cell-titre luminescent reagent, 72 h (GVK-BIO)
Holding throughout (type): cell-based

For test [1], the system named is PC3 prostate cancer cells. As for the experimental part: (§1) The ability of compounds 4001, 4002, 4008, 4010, 4011, 4013-4015, 4018, 4026, 4045-4113 and 4115-4127 to inhibit the proliferation of cancer cells representative of neuroblastoma, melanoma, prostate cancer, colorectal cancer, non-small cell lung carcinoma, and triple negative breast cancer was assessed. These studies were conducted by contract research (GVK-BIO). Briefly, a pre-determined number of cells as calculated from cell growth assays for each of the cell lines employed were seeded into their respective culture medium (using ATCC culture parameters—http://www.atcc.org) and cultured for 24 h at 37° C. and 5% CO2 in 96-well culture plates. Once attached, each cell line was then exposed to various concentrations of each respective analogue (30, 3, 0.3 and 0.03 μM for compounds in Tables 2, 3 and 4; 30, 10, 3, 1, 0.3 and 0.1 μM for compounds in Table 5), cultured for a further 72 h and exposed to cell-titre luminescent reagent (100 μL/well) for a further 30 min). Luminescence was captured using an EnVision multilabel reader and the data for each analogue concentration compared against no treatment control. For compounds in Tables 2-4, semi-log plots of Percent of Control versus concentration were prepared and IC50 determined using linear regression analysis. For compounds in Table 5, cell viability was normalized to control (vehicle alone) and dose-response curves, and half maximal effective concentration (EC50) values were determined using Graph Pad Prism 6 (nonlinear regression sigmoidal dose-response variable slope).

For test [2], the system named is DU145 prostate cancer cells. The following applies: Homo sapiens. The procedure:
as §1

The test system of test [3] is SK-Mel-28 melanoma cells. The following applies: Homo sapiens. As for the experimental part:
as §1

Test [4] relates to CaCo2 colorectal cancer cells. As for the experimental part: as §1
The test system of test [5] is A549 non-small cell lung carcinoma cells. The following applies: Homo sapiens, read-out: IC50/μM Lung (NSLC) A549. The procedure:
as §1

Test [6] deals with SK-N-SH neuroblastoma cells. The following applies: Homo sapiens. As for the experimental part: as §1
Test [7] deals with MDA-MB-231 triple negative breast cancer cells. The following applies: Homo sapiens. The procedure:
as §1

Setting [8] is: 30, 3, 0.3 and 0.03 μM, linear regression (Tables 2-4).
The mark [9] stands for this setting: DU-145, 72 h, 30, 3, 0.3 and 0.03 μM, linear regression (Tables 2-4).
Setting [10] is: SK-MEL-28, 72 h, 30, 3, 0.3 and 0.03 μM, linear regression (Tables 2-4).
[11] abbreviates: Homo sapiens, Caco-2, 72 h, 30, 3, 0.3 and 0.03 μM, linear regression (Tables 2-4).
[12] abbreviates: A549, 72 h, 30, 3, 0.3 and 0.03 μM, linear regression (Tables 2-4).
[13] abbreviates: SK-N-SH, 30, 3, 0.3 and 0.03 μM, linear regression (Tables 2-4).
Where [14] appears, read: MDA-MB-231, 72 h, 30, 3, 0.3 and 0.03 μM, linear regression (Tables 2-4).
Where [15] appears, read: 30, 10, 3, 1, 0.3 and 0.1 μM, nonlinear regression (Table 5).
Where [16] appears, read: DU-145, 72 h, 30, 10, 3, 1, 0.3 and 0.1 μM, nonlinear regression (Table 5).
The mark [17] stands for this setting: SK-MEL-28, 72 h, 30, 10, 3, 1, 0.3 and 0.1 μM, nonlinear regression (Table 5).
Setting [18] is: Homo sapiens, Caco-2, 72 h, 30, 10, 3, 1, 0.3 and 0.1 μM, nonlinear regression (Table 5).
[19] abbreviates: A549, 72 h, 30, 10, 3, 1, 0.3 and 0.1 μM, nonlinear regression (Table 5).
Where [20] appears, read: SK-N-SH, 30, 10, 3, 1, 0.3 and 0.1 μM, nonlinear regression (Table 5).
Where [21] appears, read: MDA-MB-231, 72 h, 30, 10, 3, 1, 0.3 and 0.1 μM, nonlinear regression (Table 5).

SMILES strings stand for the structures. Read-outs that look alike come from different tables or passages of the source. Some results are limits rather than exact numbers.

For the compound `Cc1c(C)n(CCCN2CCN(C)CC2)c2ccc(C(=O)N3CCN(CCc4cccc(F)c4)CC3)cc12` [Compound 4124, (2,3-dimethyl-1-(3-(4-methyl piperazin-1-yl)propyl)-1H-indol-5-yl)(4-(3-fluorophenethyl)piperazin-1-yl)methanone], the IC50 in test [1] (setting [8]) is 21.8 µM; in test [2] (setting [9]), above 30 µM; in test [3] (setting [10]), 15.9 µM; in test [4] (setting [11]), 29.6 µM; in test [5] (setting [12]), 15 µM; in test [6] (setting [13]), 10.9 µM. Besides, in test [7] (setting [14]), the IC50 came out at 13.9 µM.
On to `Cc1c(C)n(CCCN(C)C)c2ccc(Oc3ccc(C(=O)Nc4ccccc4)cc3)cc12` [Compound 4098, 4-((1-(3-(dimethylamino)propyl)-2,3-dimethyl-1H-indol-5-yl)oxy)-N-phenylbenzamide], for which the IC50 is 3.3 µM in test [1] (setting [8]); 3.4 µM in test [2] (setting [9]); 3.8 µM in test [3] (setting [10]); 4 µM in test [4] (setting [11]); 2.9 µM in test [5] (setting [12]); 3.4 µM in test [6] (setting [13]). In test [7] (setting [14]), this compound came in with an IC50 of 3.7 µM.
In the case of `Cc1c(C)n(CCCN(C)C)c2ccc(C(=O)N3CCN(CCc4ccc(F)cc4)CC3)cc12` [Compound 4118, (1-(3-(dimethylamino)propyl)-2,3-dimethyl-1H-indol-5-yl)(4-(4-fluorophenethyl)piperazin-1-yl)methanone], the IC50 was above 30 µM in test [1] (setting [8]); above 30 µM in test [2] (setting [9]); 18.1 µM in test [3] (setting [10]); above 30 µM in test [4] (setting [11]); above 30 µM in test [5] (setting [12]); 31.9 µM in test [6] (setting [13]). In test [7] (setting [14]), this compound displayed an IC50 above 30 µM.
`COc1cccc(CCN2CCN(C(=O)c3ccc4c(c3)c(C)c(C)n4CCCN3CCN(C)CC3)CC2)c1` [Compound 4125, (2,3-dimethyl-1-(3-(4-methylpiperazin-1-yl)propyl)-1H-indol-5-yl)(4-(3-methoxyphenethyl)piperazin-1-yl)methanone]: the IC50 in test [1] (setting [8]) is above 30 µM; in test [2] (setting [9]) it was above 30 µM; in test [3] (setting [10]) it was 25 µM; in test [4] (setting [11]) it was above 30 µM; in test [5] (setting [12]), 19.4 µM; in test [6] (setting [13]), 14.9 µM. Also, the IC50 in test [7] (setting [14]) was 33.2 µM.
As for `Cc1c(C)n(CCCN(C)C)c2ccc(Cc3cccc(C(=O)Nc4cccc(F)c4)c3)cc12` [Compound 4053], the IC50 in test [1] (setting [8]) was determined as 3.7 µM; in test [2] (setting [9]), 4.3 µM; in test [3] (setting [10]), 2.5 µM; in test [4] (setting [11]) it was 4.6 µM; in test [5] (setting [12]) it was 2 µM; in test [6] (setting [13]) it was 3.8 µM. Besides, in test [7] (setting [14]), the IC50 turned out to be 2.5 µM.
As for `Cc1c(C)n(CCCN(C)C)c2ccc(Cc3cccc(C(=O)Nc4ccc(F)cc4)c3)cc12` [Compound 4050], the IC50 came out at 4.2 µM in test [1] (setting [8]); 4.3 µM in test [2] (setting [9]); 2.6 µM in test [3] (setting [10]); 4.2 µM in test [4] (setting [11]); 3.1 µM in test [5] (setting [12]); 4 µM in test [6] (setting [13]). Moreover, in test [7] (setting [14]), the IC50 was 3.7 µM.
Turning to `COc1ccc(NC(=O)c2cccc(Oc3ccc4c(ccn4CCCN(C)C)c3)c2)cc1` [Compound 4057, 3-((1-(3-(dimethylamino)propyl)-1H-indol-5-yl)oxy)-N-(4-methoxyphenyl)benzamide], the IC50 in test [1] (setting [8]) worked out at 8.7 µM; in test [2] (setting [9]), 6.4 µM; in test [3] (setting [10]) it was 2.7 µM; in test [4] (setting [11]), 10.3 µM; in test [5] (setting [12]), 4.4 µM; in test [6] (setting [13]) it was 4.9 µM. Also, the IC50 in test [7] (setting [14]) was determined as 3 µM.
In the case of `Cc1c(C)n(CCCN(C)C)c2ccc(Oc3cccc(C(=O)Nc4ccc5c(c4)OCO5)c3)cc12` [Compound 4063, N-(benzo[d][1,3]dioxol-5-yl)-3-((1-(37(dimethylamino)propyl)-2,3-dimethyl-1H-indol-5-yl)oxy)benzamide], the IC50 in test [1] (setting [8]) amounted to 4.9 µM; in test [2] (setting [9]), 3.6 µM; in test [3] (setting [10]) it was 3.8 µM; in test [4] (setting [11]), 9.6 µM; in test [5] (setting [12]), 3 µM; in test [6] (setting [13]), 4.2 µM. Moreover, the IC50 in test [7] (setting [14]) amounted to 3.7 µM.
Regarding `Cc1c(C)n(CCCN(C)C)c2ccc(Cc3cccc(C(=O)Nc4ccccc4)c3)cc12` [Compound 4055], the IC50 turned out to be 7.9 µM in test [1] (setting [8]); 4.5 µM in test [2] (setting [9]); 5.1 µM in test [3] (setting [10]); 6.8 µM in test [4] (setting [11]); 4.7 µM in test [5] (setting [12]); 4.6 µM in test [6] (setting [13]). This compound also gave an IC50 in test [7] (setting [14]) of 4.7 µM.
Take `COc1ccc(NC(=O)c2ccc(Oc3ccc4c(c3)c(C)c(C)n4CCCN(C)C)cc2)cc1` [Compound 4094, 4-((1-(3-(dimethylamino)propyl)-2,3-dimethyl-1H-indol-5-yl)oxy)-N-(4-methoxyphenyl)benzamide]: the IC50 amounted to 1.5 µM in test [1] (setting [15]); 2 µM in test [2] (setting [16]); 3.8 µM in test [3] (setting [17]); 4.2 µM in test [4] (setting [18]); 2.7 µM in test [5] (setting [19]); 1.8 µM in test [6] (setting [20]). The IC50 in test [7] (setting [21]) stood at 1.7 µM.
Turning to `CN(C)CCCn1ccc2cc(Nc3cccc(C(=O)Nc4ccc(F)cc4)c3)ccc21` [Compound 4067, 3-((1-(3-(dimethylamino)propyl)-1H-indol-5-yl)amino)-N-(4-fluorophenyl)benzamide], the IC50 in test [1] (setting [8]) was 4.3 µM; in test [2] (setting [9]) it was 4.3 µM; in test [3] (setting [10]), 2.5 µM; in test [4] (setting [8]), 4.3 µM; in test [5] (setting [12]), 4 µM; in test [6] (setting [13]), 3.3 µM. In test [7] (setting [14]), this compound returned an IC50 of 3.8 µM.
`Cc1c(C)n(CCCN(C)C)c2ccc(Cc3ccc(C(=O)Nc4ccc(F)cc4)cc3)cc12` [Compound 4082, 4-((1-(3-(dimethylamino)propyl)-2,3-dimethyl-1H-indol-5-yl)methyl)-N-(4-fluorophenyl)benzamide]: the IC50 in test [1] (setting [15]) stood at 3.9 µM; in test [2] (setting [16]), 2.6 µM; in test [3] (setting [17]) it was 4.6 µM; in test [4] (setting [18]), 4 µM; in test [5] (setting [19]), 4.9 µM; in test [6] (setting [20]) it was 4.8 µM. Besides, the IC50 in test [7] (setting [21]) was found to be 4.2 µM.
In the case of `COc1cccc(NC(=O)c2ccc(Nc3ccc4c(c3)c(C)c(C)n4CCCN(C)C)cc2)c1` [Compound 4108, 4-((1-(3-(dimethylamino)propyl)-2,3-dimethyl-1H-indol-5-yl)amino)-N-(3-methoxyphenyl)benzamide], the IC50 came to 3.6 µM in test [1] (setting [8]); 3.5 µM in test [2] (setting [9]); 2.9 µM in test [3] (setting [10]); 2.1 µM in test [4] (setting [11]); 3.4 µM in test [5] (setting [12]); 2.9 µM in test [6] (setting [13]). In addition, in test [7] (setting [14]), the IC50 amounted to 2.2 µM.
Consider `COc1cccc(NC(=O)c2cccc(Oc3ccc4c(c3)c(C)c(C)n4CCCN(C)C)c2)c1` [Compound 4065, 3-((1-(3-(dimethylamino)propyl)-2,3-dimethyl-1H-indol-5-yl)oxy)-N-(3-methoxyphenyl)benzamide], for which the IC50 came out at 6.5 µM in test [1] (setting [15]); 4.2 µM in test [2] (setting [16]); 5 µM in test [3] (setting [17]); 6.5 µM in test [4] (setting [18]); 4.6 µM in test [5] (setting [19]); 5.2 µM in test [6] (setting [20]). Further, in test [7] (setting [21]), the IC50 came out at 5 µM.
Take `Cc1c(C)n(CCCN(C)C)c2ccc(C(=O)N3CCN(CCc4ccc(O)cc4)CC3)cc12` [Compound 4119, (1-(3-(dimethylamino)propyl)-2,3-dimethyl-1H-indol-5-yl)(4-(4-hydroxyphenethyl)piperazin-1-yl)methanone]: the IC50 in test [1] (setting [15]), in test [2] (setting [16]), in test [3] (setting [17]), in test [4] (setting [18]), in test [5] (setting [19]) and in test [6] (setting [20]) was above 30 µM throughout. This compound came in with an IC50 in test [7] (setting [21]) above 30 µM.
